Consider twelve compounds from PubChem BioAssay AID540318 (Broad Institute, 2011).

Molecules are shown by their SMILES.

This experiment relates to BJeLR fibroblasts viability, Alamar Blue fluorescence, 48 h. Description: BJeLR cell growth inhibition – Ras selective lethality, dry powder, set 4, dose response (AID 540318).
Broadly, the AC50 is the concentration giving half of the maximal activity seen. For `Cc1onc(C(=O)N2CCN(C(c3ccc(Cl)cc3)c3ccc(Cl)cc3)CC2)c1[N+](=O)[O-]`, the AC50 was 0.364 µM.

Consider `Cc1onc(CC(=O)N2CCN(C(c3ccc(F)cc3)c3ccc(F)cc3)CC2)c1[N+](=O)[O-]`, for which the AC50 is 28 µM. Consider `O=C(NCCNC(c1ccccc1)c1ccccc1)c1ccc([N+](=O)[O-])o1`, for which the AC50 is 25.9 µM. The same measure for `O=C(c1cc([N+](=O)[O-])ccn1)N1CCN(C(c2ccccc2)c2ccccc2)CC1`: 37.1 µM; for `Cc1onc(C(=O)N2CCN(C(c3ccccc3)c3ccccc3)CC2)c1[N+](=O)[O-]`: 2.81 µM; for `O=C(c1ccc([N+](=O)[O-])o1)N1CCN(C(c2ccc(F)cc2)c2ccc(F)cc2)CC1`: 34.9 µM.

`CCOc1ccccc1-n1c(C(C)N2CCN(C(=O)COc3ccc(Cl)cc3)CC2)nc2ccccc2c1=O` (configuration not stated): the half-maximal activity concentration (AC50) is 1.43 µM.

On to `COC(=O)c1ccc([C@@H]2c3[nH]c4ccccc4c3C[C@@H](C(=O)OC)N2C(=O)CCl)cc1`, for which the AC50 was 0.79 µM. For the compound `Cc1onc(C(=O)N2CCCN(C(c3ccccc3)c3ccccc3)CC2)c1[N+](=O)[O-]`, the AC50 was 3.45 µM. Next, `COc1ccc(C(c2ccc(OC)cc2)N2CCN(C(=O)c3noc(C)c3[N+](=O)[O-])CC2)cc1`: 4.29 µM; `Cc1onc(C(=O)N2CCN(C(c3ccccc3)c3ccc(Cl)cc3)CC2)c1[N+](=O)[O-]` (configuration not stated): 0.706 µM. `Cc1onc(C(=O)N2CCN(C(c3ccc(F)cc3)c3ccc(F)cc3)CC2)c1[N+](=O)[O-]`: the AC50 is 0.934 µM.
